The compounds below were run against T1, human cannabis CB1 receptor (Homo sapiens, UniProt P21554) (assay: Affinity for cannabinoid CB1 receptors, [3H]-CP-55,940 radioligand binding on HEK cell membranes). Settings: affinity for the CB1 receptor.
T1 construct: expressed in transfected cells; host or cells: human embryonic kidney (HEK) cells, Semliki Forest Virus system, membrane preparation
Protocol: The affinity of the compounds of the invention for cannabinoid CB1 receptors was determined using membrane preparations of human embryonic kidney (HEK) cells in which the human cannabis CB1 receptor is transiently transfected using the Semliki Forest Virus system in conjunction with [3H]-CP-55,940 as radioligand. After incubation of a freshly prepared cell membrane preparation with the [3H]-ligand, with or without addition of compounds of the invention, separation of bound and free ligand was performed by filtration over glassfiber filters. Radioactivity on the filter was measured by liquid scintillation counting.
The compounds of formula (I) show an excellent affinity for the CB1 receptor, determined with the experimental conditions described in Devane et. al. Mol. Pharmacol. 34 (1988) 605-613.

T1 sequence (P21554 whole entry): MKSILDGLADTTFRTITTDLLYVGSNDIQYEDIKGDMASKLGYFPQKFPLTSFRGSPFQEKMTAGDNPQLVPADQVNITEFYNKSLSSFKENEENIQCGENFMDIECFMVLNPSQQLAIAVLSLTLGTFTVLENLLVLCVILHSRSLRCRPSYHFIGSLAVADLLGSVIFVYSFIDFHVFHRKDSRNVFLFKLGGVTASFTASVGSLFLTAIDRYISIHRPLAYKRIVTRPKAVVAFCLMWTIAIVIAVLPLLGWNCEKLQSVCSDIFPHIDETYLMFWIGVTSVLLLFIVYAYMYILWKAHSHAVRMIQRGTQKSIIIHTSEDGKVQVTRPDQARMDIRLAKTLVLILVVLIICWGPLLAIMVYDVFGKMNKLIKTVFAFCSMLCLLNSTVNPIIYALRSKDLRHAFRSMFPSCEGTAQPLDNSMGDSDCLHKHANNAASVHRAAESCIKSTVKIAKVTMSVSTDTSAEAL

SMILES	IC50 [nM]
CCCCNC(=O)c1nc(-c2ccccc2OC)n(CC2CCCCC2)c1C [Example 52, Cyclohexylmethyl-2-(2-methoxy-phenyl)-5-methyl-1H-imidazole-4-carboxylic acid butylamide]	< 2000
CCCCNC(=O)c1cc(-c2cc(C(F)(F)F)cc(C(F)(F)F)c2)n(CC2CCCCC2)c1C [Example 41, 5-(3,5-Bis-trifluoromethyl-phenyl)-1-cyclohexylmethyl-2-methyl-1H-pyrrole-3-carboxylic acid butylamide]	< 2000
Cc1c(C(=O)N[C@@H]2CCCC[C@H]2O)cc(-c2cc(C(F)(F)F)ccc2F)n1CC1CCCCC1O (mixture of isomers) [Example 286]	< 2000
COc1ccc(Cl)cc1-c1cc(C(=O)NC2CCCCC2)c(C)n1CC1CCCCC1 [Example 89, 5-(5-Chloro-2-methoxy-phenyl)-1-cyclohexylmethyl-2-methyl-1H-pyrrole-3-carboxylic acid cyclohexylamide]	< 2000
Cc1c(C(=O)N[C@@H]2CCCC[C@H]2O)cc(-c2cc(C(F)(F)F)ccc2C(F)(F)F)n1CCC1CC1 [Example 290, 5-(2,5-Bis-trifluoromethyl-phenyl)-1-(2-cyclopropyl-ethyl)-2-methyl-1H-pyrrole-3-carboxylic acid ((1R,2R)-2-hydroxy-cyclohexyl)-amide]	< 2000
Cc1c(C(=O)NC2CCCCC2)cc(-c2cc(C(F)(F)F)ccc2Cl)n1C[C@H]1CCCC[C@H]1O (racemic) [Example 294, 5-(2-Chloro-5-trifluoromethyl-phenyl)-1-((1RS,2RS)-2-hydroxy-cyclohexylmethyl)-2-methyl-1H-pyrrole-3-carboxylic acid cyclohexylamide]	< 2000
COc1ccc(F)cc1-c1cc(C(=O)NC2CCCCC2)c(C)n1CC1CC1 [Example 194, Cyclopropylmethyl-5-(5-fluoro-2-methoxy-phenyl)-2-methyl-1H-pyrrole-3-carboxylic acid cyclohexylamide]	< 2000
Cc1c(C(=O)NN2CCCCC2)cc(-c2cc(C(F)(F)F)ccc2Cl)n1CC1CCCCC1 [Example 264, 5-(2-Chloro-5-trifluoromethyl-phenyl)-1-cyclohexylmethyl-2-methyl-1H-pyrrole-3-carboxylic acid piperidin-1-ylamide]	< 2000
CCCCNC(=O)c1cc(-c2ccc(N3CCCC3)cc2)n(CC2CCCCC2)c1C [Example 19, Cyclohexylmethyl-2-methyl-5-(4-pyrrolidin-1-yl-phenyl)-1H-pyrrole-3-carboxylic acid butylamide]	< 2000
Cc1c(C(=O)NC2CCCCC2)cc(-c2cc(C(F)(F)F)ccc2F)n1C[C@@H]1CCCC[C@H]1O (racemic) [Example 282, 5-(2-Fluoro-5-trifluoromethyl-phenyl)-1-((1SR,2RS)-2-hydroxy-cyclohexylmethyl)-2-methyl-1H-pyrrole-3-carboxylic acid cyclohexylamide]	< 2000
Cc1c(C(=O)NC2CCCCC2)cc(-c2cc(C(F)(F)F)ccc2F)n1C[C@H]1CCCC[C@H]1O (racemic) [Example 283, 5-(2-Fluoro-5-trifluoromethyl-phenyl)-1-((1RS,2RS)-2-hydroxy-cyclohexylmethyl)-2-methyl-1H-pyrrole-3-carboxylic acid cyclohexylamide]	< 2000
Cc1ccc(C(F)(F)F)cc1-c1cc(C(=O)N[C@@H]2CCCC[C@H]2O)c(C)n1CC1CCCCC1 [Example 301, Cyclohexylmethyl-2-methyl-5-(2-methyl-5-trifluoromethyl-phenyl)-1H-pyrrole-3-carboxylic acid ((1R,2R)-2-hydroxy-cyclohexyl)-amide]	< 2000
COc1ccccc1-c1nc(C(=O)NN2CCCCC2)c(C)n1CC1CCCCC1 [Example 54, Cyclohexylmethyl-2-(2-methoxy-phenyl)-5-methyl-1H-imidazole-4-carboxylic acid piperidin-1-ylamide]	< 2000
CCCCNC(=O)c1cc(-c2cc(OC)ccc2OC)n(CC2CCCCC2)c1C [Example 21, Cyclohexylmethyl-5-(2,5-dimethoxy-phenyl)-2-methyl-1H-pyrrole-3-carboxylic acid butylamide]	< 2000
COc1cc(C)c(Cl)cc1-c1cc(C(=O)NC2CCCCC2)c(C)n1CC1CCCCC1 [Example 91, 5-(5-Chloro-2-methoxy-4-methyl-phenyl)-1-cyclohexylmethyl-2-methyl-1H-pyrrole-3-carboxylic acid cyclohexylamide]	< 2000

Source: US7579369B2, “CB 1 receptor inverse agonists” (Hoffmann-La Roche Inc., priority 2003, dated 2009)
